Test results as given in patent publication US20160256480A1, “THERAPEUTIC COMPOSITION FOR WOUND HEALING” (priority 2015, published 2016).

Key:
J774A.1 cells = test: Incubation of J774A.1 mouse macrophages with beta-glucan, phase-contrast examination of cell health; format: cell-based
Method: (§1) J774A.1 cells are mouse monocyte/macrophage cells. These cells are adherent and upon death will detach from the surface fo the culture flasks or coverslips. Cells were grown to approximately 80% confluence in 24-well plates on 12 mm coverslips overnight. Cells were grown in a minimum essential medium with insulin (IMEMZO, Irvine Scientific, Santa Ana, Calif.) with 5% fetal bovine serum (FBS, Atlanta Biologicals, Norcross, Ga.). Beta-glucan was dissolved with MilliQ Ultrapure water. […] Beta-glucan was diluted with IMEMZO media and added to the cells for the duration of the incubation. Cells were examined daily and phase-contrast images taken at specific intervals to capture the health of the cells. All images were captured at 200× magnification.
The beta-glucan was purchased from Sigma-Aldrich (CAS Number 9051-97-2; MDL number MFCD00466918). Beta-glucan source was Euglena gracilis.

[1] = Dissolution of beta-glucan in MilliQ Ultrapure water; format: physicochemical
Method: as §1

beta-1,3-Glucan from Euglena gracilis [beta-glucan]
effect on cell growth and proliferation (J774A.1 cells; 1 mg/ml beta-glucan over 48 hours): no adverse affect on the cell growth and proliferation
increase in cell numbers (J774A.1 cells; 3 mg/ml beta-glucan, base media IMEMZO, 48 hours): increased in numbers at a rate that is typical in the base media
visible pathological effects on cellular growth or survival (J774A.1 cells; 3 mg/ml beta-glucan, mouse macrophages, 48 hour culture period): did not pose any visible pathological effects on cellular growth or survival
cell size and adherence (J774A.1 cells; 3 mg/ml beta-glucan, over the 48 hour culture period): did not decrease in size and remained adherent
solubility in water [1]: only partially dissolved
